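Results reflect a 48-hour exposure of cells in 96-well plates to compound at five concentrations. Abbreviation: GI50, concentration required for 50% inhibition of growth. TGI denotes the concentration required for complete inhibition of growth.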
Key:
Assay in all cases: DTP human tumour cell line panel, 48 h
A498 renal = tested on: A498 renal
A549 NSCLC = tested on: A549 NSCLC
ACHN renal = tested on: ACHN renal
BT-549 breast = tested on: BT-549 breast
CAKI-1 renal = tested on: CAKI-1 renal
COLO 205 colon = tested on: COLO 205 colon
DU-145 prostate = tested on: DU-145 prostate
EKVX NSCLC = tested on: EKVX NSCLC
HCC-2998 colon = tested on: HCC-2998 colon
HCT-116 colon = tested on: HCT-116 colon
HCT-15 colon = tested on: HCT-15 colon
HL-60(TB) leukemia = tested on: HL-60(TB) leukemia
HOP-62 NSCLC = tested on: HOP-62 NSCLC
HOP-92 NSCLC = tested on: HOP-92 NSCLC
HS 578T breast = tested on: HS 578T breast
HT29 colon = tested on: HT29 colon
IGROV1 ovarian = tested on: IGROV1 ovarian
K-562 leukemia = tested on: K-562 leukemia
KM12 colon = tested on: KM12 colon
LOX IMVI melanoma = tested on: LOX IMVI melanoma
M14 melanoma = tested on: M14 melanoma
MALME-3M melanoma = tested on: MALME-3M melanoma
MCF7 breast = tested on: MCF7 breast
MDA-MB-231 breast = tested on: MDA-MB-231 breast
MDA-MB-435 = tested on: MDA-MB-435
NCI-H226 lung = tested on: NCI-H226 lung
NCI-H23 lung = tested on: NCI-H23 lung
NCI-H460 lung = tested on: NCI-H460 lung
NCI/ADR-RES ovarian = tested on: NCI/ADR-RES ovarian
OVCAR-3 ovarian = tested on: OVCAR-3 ovarian
OVCAR-4 ovarian = tested on: OVCAR-4 ovarian
OVCAR-5 ovarian = tested on: OVCAR-5 ovarian
OVCAR-8 ovarian = tested on: OVCAR-8 ovarian
PC-3 prostate = tested on: PC-3 prostate
RPMI-8226 leukemia = tested on: RPMI-8226 leukemia
RXF 393 renal = tested on: RXF 393 renal
SF-268 CNS = tested on: SF-268 CNS
SF-295 CNS = tested on: SF-295 CNS
SF-539 CNS = tested on: SF-539 CNS
SK-MEL-2 melanoma = tested on: SK-MEL-2 melanoma
SK-MEL-28 melanoma = tested on: SK-MEL-28 melanoma
SK-MEL-5 melanoma = tested on: SK-MEL-5 melanoma
SK-OV-3 ovarian = tested on: SK-OV-3 ovarian
SN12C renal = tested on: SN12C renal
SNB-19 CNS = tested on: SNB-19 CNS
SNB-75 CNS = tested on: SNB-75 CNS
SW-620 colon = tested on: SW-620 colon
T-47D breast = tested on: T-47D breast
TK-10 renal = tested on: TK-10 renal
U251 CNS = tested on: U251 CNS
UACC-62 melanoma = tested on: UACC-62 melanoma
UO-31 renal = tested on: UO-31 renal
786-0 renal = tested on: 786-0 renal
CCRF-CEM leukemia = tested on: CCRF-CEM leukemia
MOLT-4 leukemia = tested on: MOLT-4 leukemia
NCI-H522 lung = tested on: NCI-H522 lung
UACC-257 melanoma = tested on: UACC-257 melanoma

CC(=O)OC(Cc1cc(C=C(C(F)(F)F)C(F)(F)F)cc(C)n1)(C(F)(F)F)C(F)(F)F
TGI (A498 renal): 3.3 µM | TGI (A549 NSCLC): 12.4 µM | TGI (ACHN renal): 2.84 µM | TGI (BT-549 breast): 4.96 µM | TGI (CAKI-1 renal): 3.45 µM | TGI (COLO 205 colon): 2.99 µM | TGI (DU-145 prostate): 6.84 µM | TGI (EKVX NSCLC): 5.87 µM | TGI (HCC-2998 colon): 13.3 µM | TGI (HCT-116 colon): 2.91 µM | TGI (HCT-15 colon): > 100 µM | TGI (HL-60(TB) leukemia): 1.18 µM | TGI (HOP-62 NSCLC): 3.42 µM | TGI (HOP-92 NSCLC): 2.32 µM | TGI (HS 578T breast): 18 µM | TGI (HT29 colon): 5.32 µM | TGI (IGROV1 ovarian): 1.58 µM | TGI (K-562 leukemia): 4.28 µM | TGI (KM12 colon): 2.98 µM | TGI (LOX IMVI melanoma): 3.49 µM | TGI (M14 melanoma): 4.08 µM | TGI (MALME-3M melanoma): > 20.8 µM | TGI (MCF7 breast): 0.97 µM | TGI (MDA-MB-231 breast): 4.65 µM | TGI (MDA-MB-435): 2.83 µM | TGI (NCI-H226 lung): 3.49 µM | TGI (NCI-H23 lung): 3.32 µM | TGI (NCI-H460 lung): 5.09 µM | TGI (NCI/ADR-RES ovarian): > 100 µM | TGI (OVCAR-3 ovarian): 3.57 µM | TGI (OVCAR-4 ovarian): 4.76 µM | TGI (OVCAR-5 ovarian): 4.58 µM | TGI (OVCAR-8 ovarian): > 100 µM | TGI (PC-3 prostate): 5.34 µM | TGI (RPMI-8226 leukemia): 4.56 µM | TGI (RXF 393 renal): 2.4 µM | TGI (SF-268 CNS): 5.81 µM | TGI (SF-295 CNS): 8.21 µM | TGI (SF-539 CNS): 5.27 µM | TGI (SK-MEL-2 melanoma): > 100 µM | TGI (SK-MEL-28 melanoma): 2.85 µM | TGI (SK-MEL-5 melanoma): 2.82 µM | TGI (SK-OV-3 ovarian): > 51.9 µM | TGI (SN12C renal): 3.16 µM | TGI (SNB-19 CNS): 4.38 µM | TGI (SNB-75 CNS): 7.02 µM | TGI (SW-620 colon): 5.67 µM | TGI (T-47D breast): 6.88 µM | TGI (TK-10 renal): 6.7 µM | TGI (U251 CNS): 4.74 µM | TGI (UACC-62 melanoma): 3.54 µM | TGI (UO-31 renal): 3.08 µM

ClCc1cccc(Cn2cnc3c(Cl)ncnc32)c1
GI50 (786-0 renal): 6.17 µM | TGI (786-0 renal): 19.7 µM | GI50 (A498 renal): 17.3 µM | TGI (A498 renal): 31.9 µM | GI50 (A549 NSCLC): 19.4 µM | TGI (A549 NSCLC): 39.4 µM | GI50 (ACHN renal): 2.08 µM | TGI (ACHN renal): 4.09 µM | GI50 (BT-549 breast): 15.3 µM | TGI (BT-549 breast): 30.2 µM | GI50 (CAKI-1 renal): 1.53 µM | TGI (CAKI-1 renal): 2.93 µM | GI50 (CCRF-CEM leukemia): 1.91 µM | TGI (CCRF-CEM leukemia): 3.85 µM | GI50 (COLO 205 colon): 3.09 µM | TGI (COLO 205 colon): 10.5 µM | GI50 (DU-145 prostate): 11.2 µM | TGI (DU-145 prostate): 24 µM | GI50 (EKVX NSCLC): 18.6 µM | TGI (EKVX NSCLC): 34.1 µM | GI50 (HCC-2998 colon): 0.407 µM | TGI (HCC-2998 colon): 1.75 µM | GI50 (HCT-116 colon): 1.48 µM | TGI (HCT-116 colon): 3.07 µM | GI50 (HCT-15 colon): 2.17 µM | TGI (HCT-15 colon): 4.64 µM | GI50 (HOP-62 NSCLC): 2.6 µM | TGI (HOP-62 NSCLC): 5.11 µM | GI50 (HOP-92 NSCLC): 2.46 µM | TGI (HOP-92 NSCLC): 6.22 µM | GI50 (HS 578T breast): 3.48 µM | TGI (HS 578T breast): 11.5 µM | GI50 (HT29 colon): 3.25 µM | TGI (HT29 colon): > 100 µM | GI50 (IGROV1 ovarian): 9.31 µM | TGI (IGROV1 ovarian): 33.5 µM | GI50 (K-562 leukemia): 3.56 µM | TGI (K-562 leukemia): 15.2 µM | GI50 (KM12 colon): 3.47 µM | TGI (KM12 colon): 13.4 µM | GI50 (LOX IMVI melanoma): 1.96 µM | TGI (LOX IMVI melanoma): 5.02 µM | GI50 (M14 melanoma): 1.66 µM | TGI (M14 melanoma): 3.31 µM | GI50 (MCF7 breast): 7.8 µM | TGI (MCF7 breast): 77.7 µM | GI50 (MDA-MB-231 breast): 1.99 µM | TGI (MDA-MB-231 breast): 4.04 µM | GI50 (MDA-MB-435): 1.69 µM | TGI (MDA-MB-435): 3.29 µM | GI50 (MOLT-4 leukemia): 15.8 µM | TGI (MOLT-4 leukemia): 37.4 µM | GI50 (NCI-H226 lung): 2.15 µM | TGI (NCI-H226 lung): 4.38 µM | GI50 (NCI-H23 lung): 1.92 µM | TGI (NCI-H23 lung): 4.07 µM | GI50 (NCI-H460 lung): 11.7 µM | TGI (NCI-H460 lung): 36 µM | GI50 (NCI-H522 lung): 18.6 µM | TGI (NCI-H522 lung): 65.4 µM | GI50 (NCI/ADR-RES ovarian): 2.43 µM | TGI (NCI/ADR-RES ovarian): 7.62 µM | GI50 (OVCAR-3 ovarian): 1.63 µM | TGI (OVCAR-3 ovarian): 3.05 µM | GI50 (OVCAR-4 ovarian): 2.35 µM | TGI (OVCAR-4 ovarian): 5.69 µM | GI50 (OVCAR-5 ovarian): 2.08 µM | TGI (OVCAR-5 ovarian): 4.32 µM | GI50 (OVCAR-8 ovarian): 22.1 µM | TGI (OVCAR-8 ovarian): 42 µM | GI50 (PC-3 prostate): 4.18 µM | TGI (PC-3 prostate): 18.3 µM | GI50 (RPMI-8226 leukemia): 3.82 µM | TGI (RPMI-8226 leukemia): 16.1 µM | GI50 (RXF 393 renal): 2.28 µM | TGI (RXF 393 renal): 24 µM | GI50 (SF-268 CNS): 3.53 µM | TGI (SF-268 CNS): 15.3 µM | GI50 (SF-295 CNS): 3.25 µM | TGI (SF-295 CNS): 8.68 µM | GI50 (SF-539 CNS): 20.1 µM | TGI (SF-539 CNS): 35.3 µM | GI50 (SK-MEL-2 melanoma): 22.1 µM | TGI (SK-MEL-2 melanoma): 51.1 µM | GI50 (SK-MEL-28 melanoma): 2.23 µM | TGI (SK-MEL-28 melanoma): 5.69 µM | GI50 (SK-MEL-5 melanoma): 2.3 µM | TGI (SK-MEL-5 melanoma): 6.38 µM | GI50 (SK-OV-3 ovarian): 3.31 µM | TGI (SK-OV-3 ovarian): 10.6 µM | GI50 (SN12C renal): 2.32 µM | TGI (SN12C renal): 5.13 µM | GI50 (SNB-19 CNS): 2.66 µM | TGI (SNB-19 CNS): 12.5 µM | GI50 (SNB-75 CNS): 2.09 µM | TGI (SNB-75 CNS): 4.56 µM | GI50 (SW-620 colon): 2.12 µM | TGI (SW-620 colon): 4.33 µM | GI50 (T-47D breast): 3.02 µM | TGI (T-47D breast): 12.3 µM | GI50 (TK-10 renal): 4.59 µM | TGI (TK-10 renal): 16.1 µM | GI50 (U251 CNS): 1.8 µM | TGI (U251 CNS): 3.48 µM | GI50 (UACC-257 melanoma): 20.2 µM | TGI (UACC-257 melanoma): 37.1 µM | GI50 (UACC-62 melanoma): 1.82 µM | TGI (UACC-62 melanoma): 3.4 µM | GI50 (UO-31 renal): 14.4 µM | TGI (UO-31 renal): 35.9 µM

From PubChem BioAssay (NCI)
